We go through five molecules from patent publication US7625863B2, “Treatment of patients with dysfunctional cardiac sodium channels” (The MetroHealth System, priority 2006, dated 2009).

Experiment [1] has as its target T1, WT channels (Nav1.5) (Homo sapiens, UniProt Q14524).
T1 construct: expressed in transfected cells; host or cells: HEK293
The experiment in a line: Whole cell patch clamp of sodium currents in HEK293 cells co-expressing WT channels and polymorphic peptide. In kind it is cell-based. An excerpt: Creation of Channel Fragments: Channel fragments were created by amplifying a small piece of either the wild type or the H558R polymorphic channel. These pieces were ligated into either the pcDNA3 vector or the pECFP-N3 vector (BD Biosciences Clonetech). The sequences for the fragments are: Wild Type 20 amino acid-[…] (SEQ ID NO: 10), Polymorphic 40 amino acid-[…] (SEQ ID NO: 4), and polymorphic 20 amino acid-[…] (SEQ ID NO: 3).
Expression of Nav1.5 and Fragments in HEK293 Cells: Transient transfection of Nav1.5 and Nav1.5 fragments into human embryonic kidney (HEK293) cells was accomplished using the Polyfect transfection kit (Qiagen, Valencia, Calif.) according to the manufacturer's protocol for 24 hours. When channels were expressed alone, […] of channel cDNA was used. For co-transfections, 1 μg of channel cDNA and 1 μg of fragment cDNA were combined.
Electrophysiology: Macroscopic sodium currents from transfected cells were recorded using the whole cell configuration of the patch clamp technique as previously described (Deschenes, I., et al., 2000 Cardiovasc. Res. 46: 55-65). Cells that emitted green fluorescence were considered successfully transfected. Patch electrodes were made from 1.5 mm thin walled glass capillaries (World Precision Instruments, Sarasota, Fla.). Low resistance electrodes (<2MΩ) were used, and a routine series resistance compensation of an Axopatch 200A was preformed to values >80% to minimize voltage clamp errors. Voltage clamp command pulses were generated by a microcomputer using PCLAMP software version 9.02 (Axon Instruments, Foster City, Calif.). To allow currents to stabilize, experiments were performed 10 minutes after entering whole cell configuration. Membrane currents were filtered at 5 kHZ and digitized with 12-bit resolution. The internal solution contained (in mmol/L) NaCl 35, CsF 105, EGTA 10, and Cs-HEPES 10 adjusted to pH7.4. […]
Whole cell sodium current densities were measured by dividing the peak current obtained from stepping in 10 mV intervals from −80 to 30 mV from the holding potential of −120 mV by the cell capacitance. Cell capacitance was determined by integrating the area under the capacitive transient of a pulse from −80 mV to −70 mV. […]
Voltage dependence of steady state inactivation was determined by 500 ms prepulses ranging from −140 to −30 mV (FIG. 7B inset). […]
Conductance was calculated from peak current obtained by holding the resting membrane potential at −120 mV and stepping in 10 mV intervals from −80 mV to 20 mV according to the equation: G=I/(Vm−Vrec)
The conductance was also fit to a Boltzmann distribution. Time constant of inactivation was measured by fitting individual current traces from the peak current to the end of the pulse with a single exponential: I(t)=A*exp(−t/τ)
A general note: Patch clamp records ionic current or voltage across a cell membrane.

Experiment [2] concerns YFP-1022. The experiment in a line: FRET folding study of non-mutated channel construct in HEK293 cells. In kind it is cell-based, human. The following applies: non-mutated YFP-1022 co-expressed with peptide.
Text: Image Analysis and Calculation of Fluorescence Resonance Energy Transfer Ratios: Images were acquired with and Olympus IX71 fluorescent microscope that was fitted with a Hamamatsu ORCA-ER charge coupled device (12 bit) and controlled by the SLIDEBOOK software package from Intelligent Imaging Innovations (Denver, Colo.). Filter cube specifications for the fluorescent channels were as follows for excitation and emission, respectively: enhanced cyan fluorescent protein (CFP), 430±25 and 470±30 nm; enhanced yellow fluorescent protein (YFP), 500±20 and 535±30 nm, and fluorescence resonance energy transfer (FRET), 430±25 and 535±30 nm.
Image analysis involved three basic operations: subtraction of background autofluorescence and blurred light, quantification of fluorescence intensity, and calculation of a corrected FRET (FRETc) using the following equation: FRETc=(IDA−aIAA−dIDD)/IDD,
Where IDA is the fluorescence intensity of the cell measured from the FRET filter set and IDD and IAA are the fluorescent intensities of the same cell measured from the CFP (donor) and YFP (acceptor) filter sets, respectively. The cross-talk coefficients, a and d, are considered constant and a property of our microscope's filter sets, with a=0.03 and d=0.63. The corrected FRET ratio (FRETc) includes normalization to IDD to correct for variances in protein expression from cell to cell. […]
The target of experiment [3] is T2, hNav1.5 protein fragments centered on 558 fused to YFP (Homo sapiens, UniProt Q14524).
T2 construct: Fragments centered on 558 (40 amino acids) were fused to either CFP or YFP; expressed in transfected cells
The experiment in a line: FRET between hNav1.5 protein fragments centered on 558 fused to CFP or YFP. The format is cell-based. The following applies: coexpressed with heterotypic H558-YFPf, internalized compartments. An excerpt: (§1) The beam splitter was the Chroma 86002v2bs multiband beam splitter for ECFP and EYFP (Rockingham, Vt.).
(§2) The corrected FRET ratio was defined as FRETc/IDD.

The test system of experiment [4] is hNav1.5 protein fragments centered on 558 fused to YFP. The description is as above. Particulars: coexpressed with homotypic YFP fragment. The format is cell-based, human.
Text: as §1, §2

Experiment [5] concerns the target T3, C373Y-SCN5A channels (Homo sapiens, UniProt Q14524, C373Y).
T3 construct: expressed in transfected cells; host or cells: HEK293
In kind it is cell-based. On the procedure:
(§3) Expression of hNav1.5 in HEK293 Cells: Transient transfections of SCN5A expressed in GFP-IRES were performed in human embryonic kidney cells (HEK293) with the Polyfect transfection kit (Qiagen, Valencia, Calif.) according to the manufacturer's protocol for 24 hours.
(§4) Electrophysiology: Macroscopic sodium currents from transfected cells were recorded using the whole-cell configuration of the patch-clamp technique as previously described. (Deschenes I, et al., Cardiovasc Res. 2000; 46:55-65). Cells that emitted green fluorescence and expressed INa-like currents were considered to express mutants and/or polymorphisms of hNav1.5. Patch electrodes were made from 8161 Corning glass (Dow-Corning, Midland, Mich.). Low-resistance electrodes (<2 MΩ) were used, and a routine-series resistance compensation of an Axopatch 200A was performed to values >80% to minimize the voltage-clamp errors. Voltage-clamp command pulses were generated by a microcomputer using PCLAMP software version 9.02 (Axon Instruments, Foster City, Calif.). To stabilize the current, experiments were performed 10 minutes after entering whole-cell configuration. Membrane currents were filtered at 5 kHz and digitized with 12-bit resolution. […]
(§5) Voltage dependence of steady-state inactivation was determined by 500-ms prepulses ranging from −140 to −30 mV. […]

Experiment [6] relates to WT-SCN5A+C373Y-SCN5A channels. The format is cell-based, human. On the procedure: as §3, §4, §5
Experiment [7] concerns the target T4, H558R-SCN5A+R282H-C373Y-SCN5A channels (Homo sapiens, UniProt Q14524, H558R).
T4 construct: expressed in transfected cells; host or cells: HEK293
The experiment in a line: MTSET block of whole-cell sodium current, H558R-SCN5A+R282H-C373Y-SCN5A. In kind it is cell-based. Particulars: 1 μmol/L MTSET, after 10 minutes, 1 μg + 1 μg, HEK293. The method, then:
as §3, §4, §5

The mark [8] stands for this setting: WT channels treated with polymorphic peptide, HEK293.

Several values for one entry are separate records, joined by “and”; a condition that tells them apart may be missing. Equal values may be shown once. Entries after “also recorded” stand apart in the source; their conditions may differ. Where no end group is shown, it is not given here.

In the case of “GSEADFADDENSTAGESESHRTSLLVPWPLRRTSAQGQPS [R558-40aa, 40 amino acid fragment of Nav1.5 containing the H558R polymorphism, expressed from cDNA]”, the current density in experiment [1] (HEK293 cells, WT channels co-expressed with the 40 amino acid fragment, WT alone −337.7±105.8) is −474.1±125.9 pA/pF. Besides, in experiment [1] (setting [8]), the “Conductance (V1/2)” value is −40.2 ± 3.3 mV and the “Steady State Inactivation (V1/2)” value is listed as −90.0 ± 1.6 mV. Also, in experiment [1] (WT channels with peptide, FIG. 7D), the “Time Constant of Inactivation compared to WT” value was “behaved similarly to WT”. Also, the “FRETc compared with YFP-1022 alone” value in experiment [2] is “similar”.
Take “R558-CFPf: hNav1.5 fragment centered on 558 (40 amino acids) with R558, fused to CFP (GSEADFADDENSTAGESESHRTSLLVPWPLRRTSAQGQPS; also: fused to CFP (carrier left off))”: the FRETc was found to be 0.04±0.02 in experiment [3] and 0.01±0.01 in experiment [4].
As to “NSTAGESESHRTSLLVPWPL [R558-20aa, 20 amino acid fragment of Nav1.5 containing the H558R polymorphism, expressed from cDNA]”, in experiment [2], the “FRETc compared with YFP-1022 alone” value was “similar”.
For the molecule `C[N+](C)(C)CCSS(C)(=O)=O.[Br-]` [MTSET, [2-(trimethylammonium)ethyl]methanethiosulfonate bromide], the “decrease of peak current density” value in experiment [5] was “does not significantly decrease peak current densities; also recorded: does not block”. The “decrease of whole-cell sodium current” value in experiment [6] was 42.6±9.5% and 50%. For the same molecule, in experiment [7], the “reduction of whole-cell sodium current” value was 48.1±10.0% and 50%.
Regarding “H558-CFPf: hNav1.5 fragment centered on 558 (40 amino acids) with H558, fused to CFP (GSEADFADDENSTAGESESHHTSLLVPWPLRRTSAQGQPS; also: fused to CFP (carrier left off))”, in experiment [4], the FRETc came out at 0.01±0.01.
